Assay results reported in patent US11197878B2, “Anti-inflammatory composition including novel quercetin-based compound” (AMOREPACIFIC CORPORATION, priority 2017, dated 2021).

System: skin
Test: Test for skin accumulated stimulus, HRIPT (Human repeated insult patch tests)
Type: in vivo
Parameters: key to skin reactivity (ICDRG criteria): −: negative (no response); ±: doubtful or slight erythema, etc.; +: weak reaction (which is accompanied with no phlyctenule), erythema, papule; ++: severe reaction (which is accompanied with phlyctenule), erythema, papule, phlyctenule; +++: strong reaction, bullae reaction
Conditions: for Number of examinees who exhibited ±, +, or ++ reactivity, 1st: 1st patch; for Number of examinees who exhibited ±, +, or ++ reactivity, 2nd: 2nd patch; for Number of examinees who exhibited ±, +, or ++ reactivity, 3rd: 3rd patch; for Number of examinees who exhibited ±, +, or ++ reactivity, 4th: 4th patch; for Number of examinees who exhibited ±, +, or ++ reactivity, 5th: 5th patch; for Number of examinees who exhibited ±, +, or ++ reactivity, 6th: 6th patch; for Number of examinees who exhibited ±, +, or ++ reactivity, 7th: 7th patch; for Number of examinees who exhibited ±, +, or ++ reactivity, 8th: 8th patch; for average reactivity: 9 patches over 3 weeks, 15 examinees, less than 3 is considered a stable composition; for Number of examinees who exhibited ±, +, or ++ reactivity, 9th: 9th patch
Experimental: HRIPT (Human repeated insult patch tests) was conducted in order to identify skin accumulated stimulus of quercetin3-O-[3-O″-(E)-p-coumaroyl][β-D-glucopyranosyl-(1→3)-O-α-L-rhamnopyranosyl-(1→6)-O-β-D-glucopyranoside] and quercetin3-O-[3-O″-(E)-p-coumaroyl][α-L-rhamnopyranosyl-(1→6)-O-β-D-glucopyranoside] and to calculate the concentration range that can be used in skin. Specifically, 15 healthy adult examinees were randomly selected, and test compositions in which the compounds were respectively comprised in an amount of 0.5 wt. %, 1 wt. %, and 3 wt. % (the compositions for skin, comprising an emulsifying agent, a stabilizer, purified water, etc. in addition to the compounds) were dropped in the amount of 20 μl per chamber (IQ chamber, Epitest Ltd, Finland), and patched on the right site of the upper back of the examinees, and then, after 24 hours, the patch was replaced with a new patch. A total of 9 patches were conducted, three times a week for total 3 weeks, in such manner, the skin reactions before and after patch were examined every time, and the skin reactions until 48 hours after removing the final patch were observed, and the average reactivity was observed. The skin reaction was determined according to the criteria of International Contact Dermatitis Research Group (ICDRG). In the above table, “New Material 31” refers to quercetin3-O-[3-O″-(E)-p-coumaroyl][β-D-glucopyranosyl-(1→3)-O-α-L-rhamnopyranosyl-(1→6)-O-β-D-glucopyranoside], and “New Material 32” refers to quercetin3-O-[3-O″-(E)-p-coumaroyl][α-L-rhamnopyranosyl-(1→6)-O-β-D-glucopyranoside].

Number of examinees who exhibited ±, +, or ++ reactivity, 1st (0.5 wt. %, line 1 of 3 (±)): 0 number
Number of examinees who exhibited ±, +, or ++ reactivity, 1st (0.5 wt. %, line 2 of 3 (+)): 0 number
Number of examinees who exhibited ±, +, or ++ reactivity, 1st (0.5 wt. %, line 3 of 3 (++)): 0 number
Number of examinees who exhibited ±, +, or ++ reactivity, 2nd (0.5 wt. %, line 1 of 3 (±)): 0 number
Number of examinees who exhibited ±, +, or ++ reactivity, 2nd (0.5 wt. %, line 2 of 3 (+)): 0 number
Number of examinees who exhibited ±, +, or ++ reactivity, 2nd (0.5 wt. %, line 3 of 3 (++)): 0 number
Number of examinees who exhibited ±, +, or ++ reactivity, 3rd (0.5 wt. %, line 1 of 3 (±)): 0 number
Number of examinees who exhibited ±, +, or ++ reactivity, 3rd (0.5 wt. %, line 2 of 3 (+)): 0 number
Number of examinees who exhibited ±, +, or ++ reactivity, 3rd (0.5 wt. %, line 3 of 3 (++)): 0 number
Number of examinees who exhibited ±, +, or ++ reactivity, 4th (0.5 wt. %, line 1 of 3 (±)): 0 number
Number of examinees who exhibited ±, +, or ++ reactivity, 4th (0.5 wt. %, line 2 of 3 (+)): 0 number
Number of examinees who exhibited ±, +, or ++ reactivity, 4th (0.5 wt. %, line 3 of 3 (++)): 0 number
Number of examinees who exhibited ±, +, or ++ reactivity, 5th (0.5 wt. %, line 1 of 3 (±)): 0 number
Number of examinees who exhibited ±, +, or ++ reactivity, 5th (0.5 wt. %, line 2 of 3 (+)): 0 number
Number of examinees who exhibited ±, +, or ++ reactivity, 5th (0.5 wt. %, line 3 of 3 (++)): 0 number
Number of examinees who exhibited ±, +, or ++ reactivity, 6th (0.5 wt. %, line 1 of 3 (±)): 0 number
Number of examinees who exhibited ±, +, or ++ reactivity, 6th (0.5 wt. %, line 2 of 3 (+)): 0 number
Number of examinees who exhibited ±, +, or ++ reactivity, 6th (0.5 wt. %, line 3 of 3 (++)): 0 number
Number of examinees who exhibited ±, +, or ++ reactivity, 7th (0.5 wt. %, line 1 of 3 (±)): 0 number
Number of examinees who exhibited ±, +, or ++ reactivity, 7th (0.5 wt. %, line 2 of 3 (+)): 0 number
Number of examinees who exhibited ±, +, or ++ reactivity, 7th (0.5 wt. %, line 3 of 3 (++)): 0 number
Number of examinees who exhibited ±, +, or ++ reactivity, 8th (0.5 wt. %, line 1 of 3 (±)): 0 number
Number of examinees who exhibited ±, +, or ++ reactivity, 8th (0.5 wt. %, line 2 of 3 (+)): 0 number
Number of examinees who exhibited ±, +, or ++ reactivity, 8th (0.5 wt. %, line 3 of 3 (++)): 0 number
average reactivity (0.5 wt. %): 0
Number of examinees who exhibited ±, +, or ++ reactivity, 9th (0.5 wt. %, line 1 of 3 (±)): 0 number
Number of examinees who exhibited ±, +, or ++ reactivity, 9th (0.5 wt. %, line 2 of 3 (+)): 0 number
Number of examinees who exhibited ±, +, or ++ reactivity, 9th (0.5 wt. %, line 3 of 3 (++)): 0 number
Number of examinees who exhibited ±, +, or ++ reactivity, 1st (1 wt. %, line 1 of 3 (±)): 0 number
Number of examinees who exhibited ±, +, or ++ reactivity, 1st (1 wt. %, line 2 of 3 (+)): 0 number
Number of examinees who exhibited ±, +, or ++ reactivity, 1st (1 wt. %, line 3 of 3 (++)): 0 number
Number of examinees who exhibited ±, +, or ++ reactivity, 2nd (1 wt. %, line 1 of 3 (±)): 0 number
Number of examinees who exhibited ±, +, or ++ reactivity, 2nd (1 wt. %, line 2 of 3 (+)): 0 number
Number of examinees who exhibited ±, +, or ++ reactivity, 2nd (1 wt. %, line 3 of 3 (++)): 0 number
Number of examinees who exhibited ±, +, or ++ reactivity, 3rd (1 wt. %, line 1 of 3 (±)): 0 number
Number of examinees who exhibited ±, +, or ++ reactivity, 3rd (1 wt. %, line 2 of 3 (+)): 0 number
Number of examinees who exhibited ±, +, or ++ reactivity, 3rd (1 wt. %, line 3 of 3 (++)): 0 number
Number of examinees who exhibited ±, +, or ++ reactivity, 4th (1 wt. %, line 1 of 3 (±)): 0 number
Number of examinees who exhibited ±, +, or ++ reactivity, 4th (1 wt. %, line 2 of 3 (+)): 0 number
Number of examinees who exhibited ±, +, or ++ reactivity, 4th (1 wt. %, line 3 of 3 (++)): 0 number
Number of examinees who exhibited ±, +, or ++ reactivity, 5th (1 wt. %, line 1 of 3 (±)): 0 number
Number of examinees who exhibited ±, +, or ++ reactivity, 5th (1 wt. %, line 2 of 3 (+)): 0 number
Number of examinees who exhibited ±, +, or ++ reactivity, 5th (1 wt. %, line 3 of 3 (++)): 0 number
Number of examinees who exhibited ±, +, or ++ reactivity, 6th (1 wt. %, line 1 of 3 (±)): 0 number
Number of examinees who exhibited ±, +, or ++ reactivity, 6th (1 wt. %, line 2 of 3 (+)): 0 number
Number of examinees who exhibited ±, +, or ++ reactivity, 6th (1 wt. %, line 3 of 3 (++)): 0 number
Number of examinees who exhibited ±, +, or ++ reactivity, 7th (1 wt. %, line 1 of 3 (±)): 0 number
Number of examinees who exhibited ±, +, or ++ reactivity, 7th (1 wt. %, line 2 of 3 (+)): 0 number
Number of examinees who exhibited ±, +, or ++ reactivity, 7th (1 wt. %, line 3 of 3 (++)): 0 number
Number of examinees who exhibited ±, +, or ++ reactivity, 8th (1 wt. %, line 1 of 3 (±)): 0 number
Number of examinees who exhibited ±, +, or ++ reactivity, 8th (1 wt. %, line 2 of 3 (+)): 0 number
Number of examinees who exhibited ±, +, or ++ reactivity, 8th (1 wt. %, line 3 of 3 (++)): 0 number
average reactivity (1 wt. %): 0
Number of examinees who exhibited ±, +, or ++ reactivity, 9th (1 wt. %, line 1 of 3 (±)): 0 number
Number of examinees who exhibited ±, +, or ++ reactivity, 9th (1 wt. %, line 2 of 3 (+)): 0 number
Number of examinees who exhibited ±, +, or ++ reactivity, 9th (1 wt. %, line 3 of 3 (++)): 0 number
Number of examinees who exhibited ±, +, or ++ reactivity, 1st (3 wt. %, line 1 of 3 (±)): 0 number
Number of examinees who exhibited ±, +, or ++ reactivity, 1st (3 wt. %, line 2 of 3 (+)): 0 number
Number of examinees who exhibited ±, +, or ++ reactivity, 1st (3 wt. %, line 3 of 3 (++)): 0 number
Number of examinees who exhibited ±, +, or ++ reactivity, 2nd (3 wt. %, line 1 of 3 (±)): 0 number
Number of examinees who exhibited ±, +, or ++ reactivity, 2nd (3 wt. %, line 2 of 3 (+)): 0 number
Number of examinees who exhibited ±, +, or ++ reactivity, 2nd (3 wt. %, line 3 of 3 (++)): 0 number
Number of examinees who exhibited ±, +, or ++ reactivity, 3rd (3 wt. %, line 1 of 3 (±)): 0 number
Number of examinees who exhibited ±, +, or ++ reactivity, 3rd (3 wt. %, line 2 of 3 (+)): 0 number
Number of examinees who exhibited ±, +, or ++ reactivity, 3rd (3 wt. %, line 3 of 3 (++)): 0 number
Number of examinees who exhibited ±, +, or ++ reactivity, 4th (3 wt. %, line 1 of 3 (±)): 0 number
Number of examinees who exhibited ±, +, or ++ reactivity, 4th (3 wt. %, line 2 of 3 (+)): 0 number
Number of examinees who exhibited ±, +, or ++ reactivity, 4th (3 wt. %, line 3 of 3 (++)): 0 number
Number of examinees who exhibited ±, +, or ++ reactivity, 5th (3 wt. %, line 1 of 3 (±)): 0 number
Number of examinees who exhibited ±, +, or ++ reactivity, 5th (3 wt. %, line 2 of 3 (+)): 0 number
Number of examinees who exhibited ±, +, or ++ reactivity, 5th (3 wt. %, line 3 of 3 (++)): 0 number
Number of examinees who exhibited ±, +, or ++ reactivity, 6th (3 wt. %, line 1 of 3 (±)): 0 number
Number of examinees who exhibited ±, +, or ++ reactivity, 6th (3 wt. %, line 2 of 3 (+)): 0 number
Number of examinees who exhibited ±, +, or ++ reactivity, 6th (3 wt. %, line 3 of 3 (++)): 0 number
Number of examinees who exhibited ±, +, or ++ reactivity, 7th (3 wt. %, line 1 of 3 (±)): 0 number
Number of examinees who exhibited ±, +, or ++ reactivity, 7th (3 wt. %, line 2 of 3 (+)): 0 number
Number of examinees who exhibited ±, +, or ++ reactivity, 7th (3 wt. %, line 3 of 3 (++)): 0 number
Number of examinees who exhibited ±, +, or ++ reactivity, 8th (3 wt. %, line 1 of 3 (±)): 0 number
Number of examinees who exhibited ±, +, or ++ reactivity, 8th (3 wt. %, line 2 of 3 (+)): 0 number
Number of examinees who exhibited ±, +, or ++ reactivity, 8th (3 wt. %, line 3 of 3 (++)): 0 number
average reactivity (3 wt. %): 0
Number of examinees who exhibited ±, +, or ++ reactivity, 9th (3 wt. %, line 1 of 3 (±)): 0 number
Number of examinees who exhibited ±, +, or ++ reactivity, 9th (3 wt. %, line 2 of 3 (+)): 0 number
Number of examinees who exhibited ±, +, or ++ reactivity, 9th (3 wt. %, line 3 of 3 (++)): 0 number
skin reactivity (ICDRG criteria) (within the range of contents 0.5 wt. %, 1 wt. %, 3 wt. %): −
Structure (SMILES): C[C@@H]1O[C@@H](OC[C@H]2O[C@@H](Oc3c(-c4ccc(O)c(O)c4)oc4cc(O)cc(O)c4c3=O)[C@H](O)[C@@H](OC(=O)/C=C/c3ccc(O)cc3)[C@@H]2O)[C@H](O)[C@H](O[C@@H]2O[C@H](CO)[C@@H](O)[C@H](O)[C@H]2O)[C@H]1O [New Material 31, quercetin3-O-[3-O″-(E)-p-coumaroyl][β-D-glucopyranosyl-(1→3)-O-α-L-rhamnopyranosyl-(1→6)-O-β-D-glucopyranoside]]
